Legend:
Assay in all cases: radiometric filter-binding kinase assay, Kinase HotSpot
Conditions in all cases: compound 0.5 µM; ATP 10 µM
HCK (human) = HCK (human) (UniProt P08631)
TGFBR2 (human) = TGFBR2 (human) (UniProt P37173)
PRKCA (human) = PRKCA (human) (UniProt P17252)
AKT2 (human) = AKT2 (human) (UniProt P31751)
JAK2 JH1 JH2 (human) = JAK2 JH1 JH2 (human) (UniProt O60674)
CAMK2A (human) = CAMK2A (human) (UniProt Q9UQM7)
STK11 (human) = STK11 (human) (UniProt Q15831)
CAMK1G (human) = CAMK1G (human) (UniProt Q96NX5)
PAK2 (human) = PAK2 (human) (UniProt Q13177)
CDK3 CCNE1 (human) = CDK3 CCNE1 (human) (UniProt Q00526+P24864)
IRAK4 (human) = IRAK4 (human) (UniProt Q9NWZ3)
CAMK2D (human) = CAMK2D (human) (UniProt Q13557)
SLK (human) = SLK (human) (UniProt Q9H2G2)
PAK7 (human) = PAK7 (human) (UniProt Q9P286)
PRKACA (human) = PRKACA (human) (UniProt P17612)
STK10 (human) = STK10 (human) (UniProt O94804)
MKNK2 (human) = MKNK2 (human) (UniProt Q9HBH9)
PRKCB2 (human) = PRKCB2 (human) (UniProt P05771)
FLT3 (human) = FLT3 (human) (UniProt P36888)
STK3 (human) = STK3 (human) (UniProt Q13188)
PRKX (human) = PRKX (human) (UniProt P51817)
CDK6 CCND3 (human) = CDK6 CCND3 (human) (UniProt P30281+Q00534)
CDK4 CCND1 (human) = CDK4 CCND1 (human) (UniProt P24385+P11802)
CDK2 CCNA2 (human) = CDK2 CCNA2 (human) (UniProt P24941+P20248)
TYRO3 (human) = TYRO3 (human) (UniProt Q06418)
TGFBR1 (human) = TGFBR1 (human) (UniProt P36897)
MAP3K9 (human) = MAP3K9 (human) (UniProt P80192)
DAPK1 (human) = DAPK1 (human) (UniProt P53355)
ROCK1 (human) = ROCK1 (human) (UniProt Q13464)
CHEK1 (human) = CHEK1 (human) (UniProt O14757)
CAMK2B (human) = CAMK2B (human) (UniProt Q13554)
SYK (human) = SYK (human) (UniProt P43405)
PRKG2 (human) = PRKG2 (human) (UniProt Q13237)
PDGFRA (human) = PDGFRA (human) (UniProt P16234)
TSSK2 (human) = TSSK2 (human) (UniProt Q96PF2)
DAPK2 (human) = DAPK2 (human) (UniProt Q9UIK4)
CLK1 (human) = CLK1 (human) (UniProt P49759)
TBK1 (human) = TBK1 (human) (UniProt Q9UHD2)
TAOK3 (human) = TAOK3 (human) (UniProt Q9H2K8)
EPHB2 (human) = EPHB2 (human) (UniProt P29323)
INSRR (human) = INSRR (human) (UniProt P14616)
IKBKB (human) = IKBKB (human) (UniProt O14920)

Chain of CAMK2D (human) (Q13557 whole entry, looked up): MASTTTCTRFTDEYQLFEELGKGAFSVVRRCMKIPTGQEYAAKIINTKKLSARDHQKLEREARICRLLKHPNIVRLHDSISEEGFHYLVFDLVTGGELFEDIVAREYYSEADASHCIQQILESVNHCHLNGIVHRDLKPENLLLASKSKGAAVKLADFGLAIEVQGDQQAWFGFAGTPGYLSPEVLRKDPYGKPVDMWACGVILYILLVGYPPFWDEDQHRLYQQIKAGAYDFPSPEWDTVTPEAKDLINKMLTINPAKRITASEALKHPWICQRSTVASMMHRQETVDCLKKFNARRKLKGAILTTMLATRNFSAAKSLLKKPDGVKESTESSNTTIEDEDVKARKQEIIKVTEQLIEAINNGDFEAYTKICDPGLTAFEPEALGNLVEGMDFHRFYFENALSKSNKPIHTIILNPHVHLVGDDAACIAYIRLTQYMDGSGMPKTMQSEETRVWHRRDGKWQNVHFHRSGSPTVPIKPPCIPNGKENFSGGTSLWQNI
Chain of CAMK1G (human) (Q96NX5 whole entry, looked up): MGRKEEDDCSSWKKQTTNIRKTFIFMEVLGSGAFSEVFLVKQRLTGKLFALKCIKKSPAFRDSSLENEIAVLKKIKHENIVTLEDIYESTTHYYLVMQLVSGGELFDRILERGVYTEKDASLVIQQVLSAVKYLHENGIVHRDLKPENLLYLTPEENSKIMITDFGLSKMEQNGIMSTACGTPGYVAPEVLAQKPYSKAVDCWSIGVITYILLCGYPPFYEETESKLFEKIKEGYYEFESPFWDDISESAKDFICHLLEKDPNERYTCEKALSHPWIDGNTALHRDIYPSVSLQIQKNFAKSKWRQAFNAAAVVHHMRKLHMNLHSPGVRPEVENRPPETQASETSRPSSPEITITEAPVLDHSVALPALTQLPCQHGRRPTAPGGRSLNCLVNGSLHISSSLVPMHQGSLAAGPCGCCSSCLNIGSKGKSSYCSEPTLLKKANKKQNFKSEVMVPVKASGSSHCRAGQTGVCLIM
Chain of SLK (human) (Q9H2G2 whole entry, looked up): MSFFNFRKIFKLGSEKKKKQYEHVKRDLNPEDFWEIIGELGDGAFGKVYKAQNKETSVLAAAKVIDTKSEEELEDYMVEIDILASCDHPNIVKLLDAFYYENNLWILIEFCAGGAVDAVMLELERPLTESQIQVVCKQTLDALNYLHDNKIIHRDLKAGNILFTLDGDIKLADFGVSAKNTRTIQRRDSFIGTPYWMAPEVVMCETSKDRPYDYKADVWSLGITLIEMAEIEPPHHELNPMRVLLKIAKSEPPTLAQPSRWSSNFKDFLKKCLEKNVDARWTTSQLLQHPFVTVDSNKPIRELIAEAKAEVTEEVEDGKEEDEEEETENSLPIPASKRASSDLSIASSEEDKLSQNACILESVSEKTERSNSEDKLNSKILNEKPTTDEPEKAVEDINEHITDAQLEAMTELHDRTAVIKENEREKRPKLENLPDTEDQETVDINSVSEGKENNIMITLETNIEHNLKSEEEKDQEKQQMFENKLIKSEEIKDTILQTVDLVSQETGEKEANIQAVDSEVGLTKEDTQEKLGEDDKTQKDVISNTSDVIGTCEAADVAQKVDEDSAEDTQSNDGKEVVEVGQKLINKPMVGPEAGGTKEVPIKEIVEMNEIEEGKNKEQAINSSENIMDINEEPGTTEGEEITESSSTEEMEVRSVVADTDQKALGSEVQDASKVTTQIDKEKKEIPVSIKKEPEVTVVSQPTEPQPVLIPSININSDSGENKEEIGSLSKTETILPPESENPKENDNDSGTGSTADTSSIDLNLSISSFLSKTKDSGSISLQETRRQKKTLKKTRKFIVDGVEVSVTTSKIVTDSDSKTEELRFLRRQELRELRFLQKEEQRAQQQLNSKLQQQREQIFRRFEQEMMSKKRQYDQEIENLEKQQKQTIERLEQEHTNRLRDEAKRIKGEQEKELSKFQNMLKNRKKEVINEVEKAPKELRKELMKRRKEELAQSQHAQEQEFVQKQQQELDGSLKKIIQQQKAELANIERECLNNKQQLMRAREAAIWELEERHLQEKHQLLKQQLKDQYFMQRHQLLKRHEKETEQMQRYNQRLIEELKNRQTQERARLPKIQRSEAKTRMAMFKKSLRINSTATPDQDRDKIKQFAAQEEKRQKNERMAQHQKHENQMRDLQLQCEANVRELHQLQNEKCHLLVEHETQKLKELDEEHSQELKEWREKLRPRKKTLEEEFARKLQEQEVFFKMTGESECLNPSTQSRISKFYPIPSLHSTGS
Chain of PAK7 (human) (Q9P286 whole entry, looked up): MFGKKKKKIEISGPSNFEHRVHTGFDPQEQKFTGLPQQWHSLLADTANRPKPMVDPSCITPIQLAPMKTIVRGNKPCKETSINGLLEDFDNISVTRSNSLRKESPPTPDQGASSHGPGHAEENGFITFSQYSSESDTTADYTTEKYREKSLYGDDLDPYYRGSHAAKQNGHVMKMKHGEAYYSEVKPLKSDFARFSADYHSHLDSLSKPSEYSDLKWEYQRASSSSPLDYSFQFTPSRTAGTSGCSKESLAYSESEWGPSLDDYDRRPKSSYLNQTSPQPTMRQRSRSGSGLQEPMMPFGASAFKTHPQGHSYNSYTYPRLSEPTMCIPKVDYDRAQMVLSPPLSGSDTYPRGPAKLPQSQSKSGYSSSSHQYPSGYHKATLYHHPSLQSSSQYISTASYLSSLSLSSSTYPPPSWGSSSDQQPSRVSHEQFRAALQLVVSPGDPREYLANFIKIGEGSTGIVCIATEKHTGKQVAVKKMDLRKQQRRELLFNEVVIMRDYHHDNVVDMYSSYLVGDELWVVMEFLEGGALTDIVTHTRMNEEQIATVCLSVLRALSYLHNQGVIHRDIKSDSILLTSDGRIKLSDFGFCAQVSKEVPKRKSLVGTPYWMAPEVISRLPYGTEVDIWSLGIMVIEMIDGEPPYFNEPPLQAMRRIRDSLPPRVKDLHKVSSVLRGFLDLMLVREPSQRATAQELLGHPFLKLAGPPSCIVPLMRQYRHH
Chain of TGFBR1 (human) (P36897 whole entry, looked up): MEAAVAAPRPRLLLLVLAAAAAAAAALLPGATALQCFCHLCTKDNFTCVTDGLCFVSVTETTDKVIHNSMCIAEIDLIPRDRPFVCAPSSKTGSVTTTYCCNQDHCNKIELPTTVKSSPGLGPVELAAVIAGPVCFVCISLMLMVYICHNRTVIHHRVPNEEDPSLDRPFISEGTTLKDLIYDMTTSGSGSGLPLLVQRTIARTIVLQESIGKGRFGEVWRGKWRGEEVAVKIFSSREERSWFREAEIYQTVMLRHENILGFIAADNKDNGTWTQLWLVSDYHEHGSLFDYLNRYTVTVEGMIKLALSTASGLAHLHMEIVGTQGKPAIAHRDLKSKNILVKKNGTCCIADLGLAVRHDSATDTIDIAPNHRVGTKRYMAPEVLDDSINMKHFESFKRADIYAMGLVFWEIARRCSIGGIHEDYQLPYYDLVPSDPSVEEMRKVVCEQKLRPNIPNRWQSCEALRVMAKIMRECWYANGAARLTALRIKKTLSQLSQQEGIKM
Chain of JAK2 JH1 JH2 (human) (O60674 whole entry, looked up): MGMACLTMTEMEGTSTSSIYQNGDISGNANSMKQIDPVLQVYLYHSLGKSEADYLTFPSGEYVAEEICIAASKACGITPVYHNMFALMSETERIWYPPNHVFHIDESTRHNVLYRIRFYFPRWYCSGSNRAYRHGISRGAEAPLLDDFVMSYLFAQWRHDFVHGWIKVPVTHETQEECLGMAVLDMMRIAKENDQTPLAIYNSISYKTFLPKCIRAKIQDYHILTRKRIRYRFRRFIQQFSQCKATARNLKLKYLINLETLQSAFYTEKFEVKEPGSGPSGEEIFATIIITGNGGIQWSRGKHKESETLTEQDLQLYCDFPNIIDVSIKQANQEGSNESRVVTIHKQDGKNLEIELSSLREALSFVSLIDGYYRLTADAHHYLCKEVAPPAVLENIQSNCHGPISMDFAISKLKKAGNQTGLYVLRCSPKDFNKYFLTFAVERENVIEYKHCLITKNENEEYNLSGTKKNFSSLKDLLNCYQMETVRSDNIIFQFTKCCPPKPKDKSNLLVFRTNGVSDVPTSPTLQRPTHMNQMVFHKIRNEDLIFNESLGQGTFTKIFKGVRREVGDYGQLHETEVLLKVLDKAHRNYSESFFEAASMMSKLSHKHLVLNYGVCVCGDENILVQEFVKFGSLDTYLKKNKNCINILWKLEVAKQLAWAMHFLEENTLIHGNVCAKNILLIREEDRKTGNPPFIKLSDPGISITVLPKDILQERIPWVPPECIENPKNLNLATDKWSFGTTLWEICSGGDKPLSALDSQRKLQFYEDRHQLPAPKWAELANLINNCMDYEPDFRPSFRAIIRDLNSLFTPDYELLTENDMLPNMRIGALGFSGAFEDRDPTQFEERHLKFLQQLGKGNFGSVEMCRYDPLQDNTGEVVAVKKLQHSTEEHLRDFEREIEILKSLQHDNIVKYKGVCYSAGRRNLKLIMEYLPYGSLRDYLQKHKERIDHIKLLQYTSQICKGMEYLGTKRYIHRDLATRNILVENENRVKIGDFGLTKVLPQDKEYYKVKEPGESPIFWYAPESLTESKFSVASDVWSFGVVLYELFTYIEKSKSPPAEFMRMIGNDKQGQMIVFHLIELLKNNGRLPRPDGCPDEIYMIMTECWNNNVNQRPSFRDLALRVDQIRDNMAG
Chain of DAPK2 (human) (Q9UIK4 whole entry, looked up): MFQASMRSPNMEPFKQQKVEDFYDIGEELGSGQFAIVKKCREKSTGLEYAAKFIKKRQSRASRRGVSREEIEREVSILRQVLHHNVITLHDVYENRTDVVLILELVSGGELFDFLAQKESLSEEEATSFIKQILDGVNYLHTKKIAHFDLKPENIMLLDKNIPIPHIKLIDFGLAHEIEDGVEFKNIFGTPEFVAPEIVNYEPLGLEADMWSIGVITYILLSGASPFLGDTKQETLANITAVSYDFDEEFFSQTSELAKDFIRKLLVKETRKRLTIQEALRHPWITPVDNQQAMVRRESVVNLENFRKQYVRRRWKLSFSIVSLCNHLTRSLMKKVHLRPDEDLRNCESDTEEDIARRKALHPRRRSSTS

## CSc1nc(-c2ccc(F)cc2)c(-c2ccnc(NC(C)c3ccccc3)c2)[nH]1 (configuration not stated)
HCK (human)
  residual activity: 83.5%
TGFBR2 (human)
  residual activity: 96.5%
PRKCA (human)
  residual activity: 108%
AKT2 (human)
  residual activity: 96.8%
JAK2 JH1 JH2 (human)
  residual activity: 102%
CAMK2A (human)
  residual activity: 96.5%
STK11 (human)
  residual activity: 95.4%
CAMK1G (human)
  residual activity: 98.3%
PAK2 (human)
  residual activity: 104%
CDK3 CCNE1 (human)
  residual activity: 85.3%
IRAK4 (human)
  residual activity: 82.6%
CAMK2D (human)
  residual activity: 99.3%
SLK (human)
  residual activity: 104%
PAK7 (human)
  residual activity: 85.3%
PRKACA (human)
  residual activity: 96%
STK10 (human)
  residual activity: 86.8%
MKNK2 (human)
  residual activity: 105%
PRKCB2 (human)
  residual activity: 101%
FLT3 (human)
  residual activity: 92.8%
STK3 (human)
  residual activity: 88.8%
PRKX (human)
  residual activity: 91.5%
CDK6 CCND3 (human)
  residual activity: 98.3%
CDK4 CCND1 (human)
  residual activity: 109%
CDK2 CCNA2 (human)
  residual activity: 96.8%
TYRO3 (human)
  residual activity: 108%
TGFBR1 (human)
  residual activity: 93.3%
MAP3K9 (human)
  residual activity: 101%
DAPK1 (human)
  residual activity: 101%
ROCK1 (human)
  residual activity: 91.7%
CHEK1 (human)
  residual activity: 101%
CAMK2B (human)
  residual activity: 89.2%
SYK (human)
  residual activity: 96.8%
PRKG2 (human)
  residual activity: 102%
PDGFRA (human)
  residual activity: 102%
TSSK2 (human)
  residual activity: 78.2%
DAPK2 (human)
  residual activity: 101%
CLK1 (human)
  residual activity: 96.8%
TBK1 (human)
  residual activity: 92%
TAOK3 (human)
  residual activity: 91.7%
EPHB2 (human)
  residual activity: 85.4%
INSRR (human)
  residual activity: 98.9%

## Nc1nc(Nc2ccc(S(N)(=O)=O)cc2)nn1C(=S)Nc1c(F)cccc1F
IKBKB (human)
  residual activity: 49.3%
HCK (human)
  residual activity: 37.9%
TGFBR2 (human)
  residual activity: 89.3%
PRKCA (human)
  residual activity: 46.2%
AKT2 (human)
  residual activity: 103%
JAK2 JH1 JH2 (human)
  residual activity: 3.16%
CAMK2A (human)
  residual activity: 14.3%
STK11 (human)
  residual activity: 23.5%
CAMK1G (human)
  residual activity: 95.9%
PAK2 (human)
  residual activity: 26.4%
CDK3 CCNE1 (human)
  residual activity: -0.912%
IRAK4 (human)
  residual activity: 19.6%
CAMK2D (human)
  residual activity: 15.6%
SLK (human)
  residual activity: 4.58%
PAK7 (human)
  residual activity: 43.8%
PRKACA (human)
  residual activity: 78.2%
STK10 (human)
  residual activity: 3.96%
MKNK2 (human)
  residual activity: 17.2%
PRKCB2 (human)
  residual activity: 74.5%
FLT3 (human)
  residual activity: 1.07%
STK3 (human)
  residual activity: 1.33%
PRKX (human)
  residual activity: 76.3%
CDK6 CCND3 (human)
  residual activity: 7.69%
CDK4 CCND1 (human)
  residual activity: 87.7%
CDK2 CCNA2 (human)
  residual activity: 1.56%
TYRO3 (human)
  residual activity: 29.8%
TGFBR1 (human)
  residual activity: 81.8%
MAP3K9 (human)
  residual activity: -0.373%
DAPK1 (human)
  residual activity: 81.3%
ROCK1 (human)
  residual activity: 0.17%
CAMK2B (human)
  residual activity: 9.5%
SYK (human)
  residual activity: 15.5%
PRKG2 (human)
  residual activity: 61.4%
PDGFRA (human)
  residual activity: 56.4%
TSSK2 (human)
  residual activity: 91.3%
DAPK2 (human)
  residual activity: 83%
CLK1 (human)
  residual activity: 2.26%
TBK1 (human)
  residual activity: 10.3%
TAOK3 (human)
  residual activity: 10%
EPHB2 (human)
  residual activity: 81.4%
INSRR (human)
  residual activity: 86.5%

## O=C1Cc2c([nH]c3ccc([N+](=O)[O-])cc23)-c2ccccc2N1
IKBKB (human)
  residual activity: 102%
HCK (human)
  residual activity: 71.8%
TGFBR2 (human)
  residual activity: 19.4%
PRKCA (human)
  residual activity: 59.9%
AKT2 (human)
  residual activity: 101%
JAK2 JH1 JH2 (human)
  residual activity: 103%
CAMK2A (human)
  residual activity: 88.4%
STK11 (human)
  residual activity: 90.2%
CAMK1G (human)
  residual activity: 96%
PAK2 (human)
  residual activity: 41%
CDK3 CCNE1 (human)
  residual activity: 56.8%
IRAK4 (human)
  residual activity: 167%
CAMK2D (human)
  residual activity: 79.3%
SLK (human)
  residual activity: 96.2%
PAK7 (human)
  residual activity: 71.4%
PRKACA (human)
  residual activity: 87.4%
STK10 (human)
  residual activity: 80.4%
MKNK2 (human)
  residual activity: 92.9%
PRKCB2 (human)
  residual activity: 105%
FLT3 (human)
  residual activity: 19.7%
STK3 (human)
  residual activity: 70.3%
PRKX (human)
  residual activity: 74.5%
CDK2 CCNA2 (human)
  residual activity: 8.37%
TYRO3 (human)
  residual activity: 96.7%
TGFBR1 (human)
  residual activity: 103%
MAP3K9 (human)
  residual activity: 10.5%
DAPK1 (human)
  residual activity: 104%
ROCK1 (human)
  residual activity: 91.2%
CHEK1 (human)
  residual activity: 37.5%
CAMK2B (human)
  residual activity: 98.1%
SYK (human)
  residual activity: 53.9%
PRKG2 (human)
  residual activity: 97.6%
PDGFRA (human)
  residual activity: 91.7%
TSSK2 (human)
  residual activity: 88.3%
DAPK2 (human)
  residual activity: 97.2%
CLK1 (human)
  residual activity: 111%
TBK1 (human)
  residual activity: 82.4%
TAOK3 (human)
  residual activity: 76.7%
EPHB2 (human)
  residual activity: 101%
INSRR (human)
  residual activity: 94.5%
